{"source": "paper PMC8920929", "about": "(The Journal of Biological Chemistry, 2022)", "key": {"human TRPV3": {"target": "T1, human TRPV3 (Homo sapiens, UniProt Q8NET8)", "T1 sequence (Q8NET8 1-790)": "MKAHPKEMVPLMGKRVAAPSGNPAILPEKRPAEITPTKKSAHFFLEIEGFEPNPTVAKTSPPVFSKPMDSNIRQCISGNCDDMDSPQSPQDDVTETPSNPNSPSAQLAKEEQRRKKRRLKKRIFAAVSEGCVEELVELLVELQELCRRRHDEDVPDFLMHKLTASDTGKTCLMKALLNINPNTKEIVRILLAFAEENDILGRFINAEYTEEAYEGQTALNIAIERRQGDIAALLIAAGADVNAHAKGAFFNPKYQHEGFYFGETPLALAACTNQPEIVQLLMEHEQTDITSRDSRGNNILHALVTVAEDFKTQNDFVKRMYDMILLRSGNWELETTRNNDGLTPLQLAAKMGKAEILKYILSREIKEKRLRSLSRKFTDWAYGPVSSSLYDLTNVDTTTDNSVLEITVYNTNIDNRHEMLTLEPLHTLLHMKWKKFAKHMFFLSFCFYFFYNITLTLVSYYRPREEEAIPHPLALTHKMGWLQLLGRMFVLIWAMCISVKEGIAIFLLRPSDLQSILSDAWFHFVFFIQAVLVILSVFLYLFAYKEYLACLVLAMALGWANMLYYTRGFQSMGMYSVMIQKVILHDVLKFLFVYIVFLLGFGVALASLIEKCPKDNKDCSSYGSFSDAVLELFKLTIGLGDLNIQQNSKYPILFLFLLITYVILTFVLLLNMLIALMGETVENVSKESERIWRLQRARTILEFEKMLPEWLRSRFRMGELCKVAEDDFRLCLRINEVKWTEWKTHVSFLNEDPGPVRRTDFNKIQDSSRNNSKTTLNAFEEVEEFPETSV", "experiment": "Inside-out single channel recordings of TRPV3", "format": "biochemical"}, "TRPV3-L508A": {"target": "T2, TRPV3-L508A (Homo sapiens, UniProt Q8NET8, L508A)", "T2 sequence (Q8NET8 1-790 L508A)": "T1 sequence (Q8NET8 1-790) with L508A", "experiment": "Whole-cell and single-channel recordings of the TRPV3-L508A mutant", "format": "cell-based", "conditions": "carvacrol 0.3-3.0 mM or 50 μM 2-APB"}, "mice": {"system": "mice", "conditions": "mice, but not TRPV3-KO mice; ref [33], [34]; cited from earlier work"}, "TRPV3-L508F": {"target": "T3, TRPV3-L508F (Homo sapiens, UniProt Q8NET8, L508F)", "T3 sequence (Q8NET8 1-790 L508F)": "T1 sequence (Q8NET8 1-790) with L508F", "experiment": "Whole-cell and single-channel recordings of the TRPV3-L508F mutant", "format": "cell-based", "conditions": "carvacrol 0.3-3.0 mM or 50 μM 2-APB"}, "[1]": {"conditions": "+80 mV, carvacrol 300 μM or 2-APB 50 μM alone"}}, "note": "Substitutions are numbered along the chain they refer to.", "data": [{"compound": "Cc1ccc(C(C)C)cc1O", "note": "[carvacrol, 5-Isopropyl-2-methylphenol]", "values": [{"measurement": "single-channel open frequency (Freq)", "setting": "human TRPV3; [1]", "value": "59.21 ± 11.32", "unit": "Hz"}, {"measurement": "single-channel open probability (Po)", "setting": "human TRPV3; [1]", "value": "0.72 ± 0.05"}, {"measurement": "unitary conductance of TRPV3 single channels", "setting": "human TRPV3; inside-out patches, -80 mV to +80 mV, carvacrol 300 μM, 2-APB 50 μM, n = 4", "value": "182.0 ± 6.4", "unit": "pS"}, {"measurement": "activation of TRPV3 L508A mutant channel", "setting": "TRPV3-L508A", "value": "loss of the mutant channel activation"}, {"measurement": "pruritus on pharmacological activation of TRPV3", "setting": "mice", "value": "induces pruritus"}, {"measurement": "activation of TRPV3 L508F mutant channel", "setting": "TRPV3-L508F", "value": "ablated TRPV3 activation"}]}]}
